For data set [1] the following is noted: renally insufficient children; cited from earlier work.
A short description of data set [2]: Clinical pilot study, type 2 diabetes mellitus and diabetic nephropathy in the microalbuminuria stage. It counts as in vivo, human. The settings on record: after 6 months' treatment, 1.5 grams/day oral; before treatment 37.8±4.6; p<0.01; 8 patients. The procedure: (§1) Lastly, a clinical pilot study has been conducted in a small patient sample, consisting of 8 patients suffering from type 2 diabetes mellitus and diabetic nephropathy in the microalbuminuria stage without evidence of frank renal insufficiency and 10 patients suffering from type 2 diabetes mellitus and renal insufficiency (serum creatinine>2 mg/dl and creatinine clearance <40 ml/min).
(§2) Both patient groups were treated with 1.5 grams/day of PLC administered in three distinct doses of 500 mg at three different times of day (1 tablet after breakfast, lunch and dinner) for a total period of 6 months.

For data set [3] the following is noted: cited from earlier work.
The conditions of data set [4]: organ ischaemia and reperfusion; cited from earlier work.
Data set [5] can be described thus: Clinical physiology study: forearm blood flow by plethysmography, intravenous infusion of PLC. It counts as in vivo, human. The conditions noted are these: 6 healthy volunteers, after 60-minute intravenous infusion at 12 micrograms per minute. As to the method:
A clinical physiology study was conducted in human subjects for the purpose of establishing whether PLC was also capable of exerting a vasodilating action at the microcirculatory level. […] This study was conducted in 6 healthy volunteers, whose overall blood flow was measured by plethysmography in the forearm, both in basal conditions and after 60-minute intravenous infusion of PLC at the dose of 12 micrograms per minute. The choice of dose to be administered was based on kinetics calculations, in order to try and achieve a steady state plasma concentration of PLC similar to the one obtained with chronic oral administration of 2 grams of PLC.

The nature of data set [6]: Tolerability in patients with diabetes mellitus and peripheral arteriopathy. The settings on record: 6 months' treatment. The format is in vivo, human.
Data set [7] in a line: Clinical study: forearm blood flow by plethysmography, local intra-arterial PLC, then nitro-L-arginine. It counts as in vivo, human. The conditions noted are these: 8 healthy volunteers, local intra-arterial administration.
A short description of data set [8]: Clinical pilot study, type 2 diabetes mellitus and renal insufficiency. The conditions noted are these: after 6 months' treatment, 1.5 grams/day oral. It counts as in vivo, human. As to the method: as §1, §2

With `C[N+](C)(C)C[C@H](O)CC(=O)[O-]` [L-carnitine], in data set [1], the serum triglyceride levels result is “reduces the serum triglyceride levels”.

For `CCC(=O)O[C@H](CC(=O)[O-])C[N+](C)(C)C` [PLC, propionyl L-carnitine], the “urinary microalbumin excretion rate” value in data set [2] was 21.3±5.1 mg/g creatinine. In data set [3] (streptozocin-diabetic rats (Hotta et al. 1996)), the “functional capability and perfusion of the peripheral nerves” value is on record as “capable of improving”. In addition, the “plasma lipid levels (total cholesterol, triglycerides, LDL)” value in data set [3] (streptozocin-diabetic rats) is given as “reduced”. The “damage induced by the ischaemia” value in data set [4] was “capable of reducing the damage induced by the ischaemia”. Moreover, the “increase in blood flow as compared to resting basal flow” value in data set [5] is “approximately 25%”. The “side effects in man” value in data set [6] is on record as “no severe unwanted effects”. For the same molecule, the vasodilatory action entry in data set [7] is on record as “confirmed the vasodilatory action”. Moreover, the 24-h proteinuria in data set [8] (before treatment 6.2±2.3, p<0.01, 10 patients) worked out at 3.1±1.2 g/24 h. The molecule also returned a creatinine clearance in data set [8] (before treatment 34.6±4.6, spread ±7.3) of 42.7 mL/min. This molecule came in with an LDL in data set [8] (before treatment 169±15) of 158 ± 10 mg/dL. In data set [8] (before treatment 217±75 mg/dl), this molecule showed a triglycerides of 192±62 m/dl.

The values are drawn from patent US6696492B1, “Use of L carnitine and its alkanoyl dervatives for the preparation of a medicament useful for the treatment of patients suffering from diabetic and/or dysmetabolic nephropathy” (Sigma-Tau Industrie Farmaceutiche Riunite S.p.A., priority 1999, dated 2004).
